Like-named read-outs stand apart in the source and are kept apart here.
What was measured:
wild-type Mtb H37Rv = assay type: in vivo, 129sv DHP-1 knockout mice; conditions: for Log10 CFU per mouse (lungs), Mean: days 9-15, lungs day 16, untreated day 16 mean 9.1
Mtb ΔpanCDΔlysA = assay type: cell-based, Mycobacterium tuberculosis; conditions: MIC90 in presence vs absence of 4 μg/mL clavulanate, replicating Mtb
[1] = female, 129sv DHP-1 knockout, mouse, in vivo
Caco-2 cells [2] = experiment: Caco-2 permeability / efflux transporter substrate; conditions: Caco-2
[3] = Caco-2 permeability / efflux transporter substrate; conditions: human
[4] = Stability in simulated gastric fluid (SGF); conditions: simulated gastric fluid (SGF), pH 1.2
[5] = In vitro plasma stability, SD rat plasma; conditions: SD, rat, plasma, Plasma stability % Remaining, 37 °C, time point 120 min
in vivo [6] = conditions: female, 129sv DHP-1 knockout, mouse, sc
[7] = Stability in fasted simulated intestinal fluid (FaSSIF); conditions: fasted simulated intestinal fluid (FaSSIF), pH 6.5, FaSSIF Stability, % remaining, pH 6.5, room temperature
[8] = In vitro plasma stability, CD-1 mouse plasma; conditions: male, CD-1, mouse, plasma, Plasma stability % Remaining, Mouse, 37 °C, time point 120 min
[9] = In vitro plasma stability, human plasma; conditions: human, plasma, Plasma stability % Remaining, 37 °C, time point 120 min
[10] = In vitro plasma stability, cynomolgus monkey plasma; conditions: monkey, plasma
[11] = In vitro plasma stability, beagle dog plasma; conditions: beagle, dog, plasma
[12] = 300 mg/kg sc, uninfected DHP-1 mice
in vitro [13] = conditions: human, plasma, Plasma stability % Remaining
in vitro [14] = conditions: cynomolgus monkey, plasma, pH 7.4
in vivo [15] = conditions: DHP-1 knockout, mouse, sc, 300 mg/kg
in vitro [16] = conditions: beagle, dog, plasma, pH 7.4
in vitro [17] = conditions: human
Caco-2 cells [18] = tested on: Caco-2 cells
in vivo [19] = conditions: female, CD-1, mouse
in vitro [20] = conditions: beagle, dog, plasma
in vitro [21] = conditions: monkey, plasma
physchem [22] = conditions: simulated gi fluid, pH 1.2
Mtb H37Rv [23] = experiment: MIC90 against replicating (R) Mtb H37Rv, with or without clavulanate; assay type: cell-based, Mycobacterium tuberculosis; conditions: Table S4
physchem [24] = conditions: simulated gi fluid, pH 6.5, FaSSIF Stability, % remaining, 24h
in vitro [25] = conditions: human, plasma, pH 7.4, % bound to plasma
in vitro [26] = conditions: male, CD-1, mouse, plasma, Plasma stability % Remaining
HepG2 cells = experiment: Cytotoxicity against HepG2 cells (CellTiter-Glo); assay type: cell-based, human; conditions: Table S4
Protocol: Compounds were tested for cytotoxicity against HepG2 cells as previously described.[48],[69],[70] Briefly, cells were exposed to compounds for 48–72 h, and viability was measured using CellTiter-Glo (Promega).

in vitro [27] = conditions: CD-1, mouse, plasma, pH 7.4, % bound to plasma
P. aeruginosa = experiment: Microbial spectrum, P. aeruginosa; assay type: cell-based, Pseudomonas aeruginosa; conditions: clavulanate 4 μg/mL; Table S4
C. albicans = experiment: Microbial spectrum, C. albicans; assay type: cell-based, Candida albicans; conditions: no clavulanate; Table S4
E. coli = experiment: Microbial spectrum, E. coli; assay type: cell-based, Escherichia coli; conditions: clavulanate 4 μg/mL; Table S4
Mtb H37Rv [28] = experiment: MIC90 against nonreplicating (NR, 4-stress) Mtb H37Rv, with or without clavulanate; assay type: cell-based, Mycobacterium tuberculosis; conditions: 4-stress nonreplicating, Table S4
S. aureus = experiment: Microbial spectrum, S. aureus; assay type: cell-based, Staphylococcus aureus; conditions: clavulanate 4 μg/mL; Table S4
in vitro [29] = conditions: SD, rat, plasma, Plasma stability % Remaining
in vitro [30] = conditions: SD, rat, plasma, pH 7.4, % bound to plasma
[31] = 50 mg/kg sc bid + clavulanate 100 mg/kg po bid
[32] = Caco-2, pH 7.4, Caco-2 Mean Recovery % A to B
[33] = Caco-2, pH 7.4, Caco-2 Mean Recovery % B to A

C[C@@H](O)[C@H]1C(=O)N2C(C(=O)O)=C(S[C@@H]3CN[C@H](C(=O)N(C)C)C3)[C@H](C)[C@H]12 [Meropenem, reference compound]
Log10 CFU per mouse (lungs), Mean (wild-type Mtb H37Rv; [31]): 7.6 Log10 CFU | Log10 CFU per mouse (lungs), Mean (wild-type Mtb H37Rv; 300 mg/kg sc bid + clavulanate 100 mg/kg po bid): 7.1 Log10 CFU | effect on lung CFU (in words) (wild-type Mtb H37Rv; mouse, in vivo): bacteriostatic impact | clavulanate shift of MIC90 (Mtb ΔpanCDΔlysA): ~8 fold | Tlast [1]: 1.0 h | Caco-2 Rank Papp (Caco-2 cells [2]): Low | Papp A→B at 120 min, 3 μM ([3]; Caco-2, pH 7.4): < 0.26 ×10⁻⁶ cm/s | Papp B→A at 120 min, 3 μM ([3]; Caco-2, pH 7.4): < 0.24 ×10⁻⁶ cm/s | recovery at 120 min, 3 μM [3, 32]: < 91% | recovery at 120 min, 3 μM [3, 33]: < 94.2% | remaining at 1 h, 10 μM [4]: 111% | remaining at 24 h, 10 μM [4]: 100% | remaining at 2 h, 2 μM [5]: 57.7% | AUC(0-t) (in vivo [6]; 50 mg/kg): 387 ng·h/mL | Cmax (in vivo [6]; 50 mg/kg): 724 ng/mL | Tmax (in vivo [6]; 50 mg/kg): 30 min | AUC(0-t) (in vivo [6]; 300 mg/kg): 2000 ng·h/mL | Cmax (in vivo [6]; 300 mg/kg): 3340 ng/mL | Tmax (in vivo [6]; 300 mg/kg): 30 min | remaining at 6 h, 10 μM ([7]; 6h): 94.1% | remaining at 24 h, 10 μM ([7]; 24h): 76.8% | remaining at 2 h, 2 μM [8]: 74.7% | remaining at 2 h, 2 μM [9]: 70.6% | remaining at 2 h, 2 μM [10]: 99.9% | remaining at 2 h, 2 μM [11]: 75.2%

O=C(Cc1cccs1)N[C@@H]1C(=O)N2C(C(=O)O)=C(CSc3cccc[n+]3[O-])CS[C@H]12 [TBBL-0000001]
Comments (tolerability) [12]: Recovered at t= 8h | Tlast [12]: 2.0 to 4.0 h | remaining at 2 h, 2 μM (in vitro [13]): 77.3% | fraction unbound at 4 h, 2 μM (in vitro [14]): 0.166 | AUC(0-t) (in vivo [15]): 43000 ± 1680 ng·h/mL | Cmax (in vivo [15]): 29800 ± 7140 ng/mL | Tmax (in vivo [15]): 60 min | Log10 CFU per mouse (lungs), Mean (wild-type Mtb H37Rv; [31]): 8.8 Log10 CFU | fraction unbound at 4 h, 2 μM (in vitro [16]): 0.529 | Papp A→B at 120 min, 3 μM (in vitro [17]; Caco-2, pH 7.4): < 0.04 ×10⁻⁶ cm/s | Papp B→A at 120 min, 3 μM (in vitro [17]; Caco-2, pH 7.4): < 0.03 ×10⁻⁶ cm/s | recovery at 120 min, 3 μM (in vitro [17]; [32]): < 93.1% | recovery at 120 min, 3 μM (in vitro [17]; [33]): < 99.8% | Caco-2 Rank Papp (Caco-2 cells [18]): Low | Tlast [1]: 3.0 h | AUC(0-t) (in vivo [19]; iv, 5 mg/kg): 5590 ng·h/mL | Vd (in vivo [19]; iv, 5 mg/kg): 0.32 L/kg | clearance (in vivo [19]; iv, 5 mg/kg): 7.4 mL/min/kg | half-life (in vivo [19]; iv, 5 mg/kg): 30 min | k el (in vivo [19]; iv, 5 mg/kg): 0.000389 s⁻¹ | AUC(0-t) (in vivo [19]; po, 25 mg/kg): 111 ng·h/mL | bioavailability (in vivo [19]; po, 25 mg/kg): 0.19% | remaining at 2 h, 2 μM (in vitro [20]): 54.7% | remaining at 2 h, 2 μM (in vitro [21]): 117% | remaining at 1 h, 10 μM (physchem [22]): 102% | remaining at 24 h, 10 μM (physchem [22]): 116% | Mtb H37Rv R + CLAV (MIC90) (Mtb H37Rv [23]; clavulanate 4 μg/mL): 1.7 µM | Mtb H37Rv R (MIC90) (Mtb H37Rv [23]; no clavulanate): 3 µM | remaining at 24 h, 10 μM (physchem [24]): 114% | fraction unbound at 4 h, 2 μM (in vitro [25]): 0.22 | remaining at 2 h, 2 μM (in vitro [26]): 79.6% | HepG2 LD50 (HepG2 cells): 67.5 µM | fraction unbound at 4 h, 2 μM (in vitro [27]): 0.374 | AUC(0-t) (in vivo [6]; 50 mg/kg): 38100 ng·h/mL | Cmax (in vivo [6]; 50 mg/kg): 27800 ng/mL | Tmax (in vivo [6]; 50 mg/kg): 60 min | P.aeruginosa R + CLAV (MIC90) (P. aeruginosa): > 100 µM | C.albicans R (MIC90) (C. albicans): > 100 µM | E.coli R + CLAV (MIC90) (E. coli): 26.9 µM | Mtb H37Rv NR + CLAV (MIC90) (Mtb H37Rv [28]; clavulanate 4 μg/mL): 2.2 µM | Mtb H37Rv NR (MIC90) (Mtb H37Rv [28]; no clavulanate): 1.8 µM | S.aureus R + CLAV (MIC90) (S. aureus): 0.6 µM | remaining at 2 h, 2 μM (in vitro [29]): 80.6% | fraction unbound at 4 h, 2 μM (in vitro [30]): 0.369
